Tests used:
Stromelysin = target: T1, Stromelysin (Homo sapiens, UniProt P08254); assay: Stromelysin inhibition in vitro (substrate A: 3H casein); assay type: biochemical, Human (Recombinant); conditions: for inhibition of stromelysin (human) relative to other enzymes: in words, from Table 1, next collagenase and thermolysin; for IC50: stromelysin, human recombinant, substrate A (3H casein)
T1 construct: prostromelysin prepared by genetic engineering (Celltech., GB) was used by treating it with trypsin; purchased Celltech., GB
Procedure: (§1) As stromelysin (human), prostromelysin prepared by genetic engineering (Celltech., GB) was used by treating it with trypsin (10 μg/ml) at 37° C. for 10 minutes and inhibiting a residual trypsin activity with soybean trypsin inhibitor (50 μg/ml).
(§2) Substrate A: ^3 Hcasein

Collagenase = Collagenase inhibition in vitro (substrate A: 3H casein); assay type: biochemical; conditions: Chlostridium histriticum
Procedure: as §1, with “An inhibitory activity of BE-16627A and B to various proteases including stromelysin and collagenase was determined by an in-vitro test. As” for “As”
as §2

Thermolysin = Thermolysin (Bacillus thermoproteolyticus, UniProt P00800); assay: Thermolysin inhibition in vitro (substrate A: 3H casein); assay type: biochemical, Bacillus thermo-proteolyticus
Procedure: as §1, with “An inhibitory activity of BE-16627A and B to various proteases including stromelysin and collagenase was determined by an in-vitro test. As” for “As”
as §2

Trypsin = target: T2, Trypsin (Bos taurus, UniProt P00760); assay: Trypsin inhibition in vitro (substrate A: 3H casein); assay type: biochemical; conditions: bovine
T2 sequence (P00760 24-246): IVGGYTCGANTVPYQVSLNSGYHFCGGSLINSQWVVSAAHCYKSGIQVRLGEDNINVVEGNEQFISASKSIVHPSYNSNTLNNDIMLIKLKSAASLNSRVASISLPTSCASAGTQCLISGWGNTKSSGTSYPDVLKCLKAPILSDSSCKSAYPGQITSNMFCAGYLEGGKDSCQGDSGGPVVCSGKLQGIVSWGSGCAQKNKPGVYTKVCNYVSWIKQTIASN
Procedure: as §1, with “An inhibitory activity of BE-16627A and B to various proteases including stromelysin and collagenase was determined by an in-vitro test. As” for “As”
as §2

Chymotrypsin = Chymotrypsin (Bos taurus, UniProt P00766); assay: Chymotrypsin inhibition in vitro (substrate A: 3H casein); assay type: biochemical; conditions: bovine
Procedure: as §1, with “An inhibitory activity of BE-16627A and B to various proteases including stromelysin and collagenase was determined by an in-vitro test. As” for “As”
as §2

Elastase = Elastase (Sus scrofa, UniProt P00772); assay: Elastase inhibition in vitro (substrate B: Succinylalanyl-prolyl-alanyl-methylcumarylamide); assay type: biochemical; conditions: porcine
Procedure: as §1, with “An inhibitory activity of BE-16627A and B to various proteases including stromelysin and collagenase was determined by an in-vitro test. As” for “As”
Substrate B: Succinylalanyl-prolyl-alanyl-methylcumarylamide

Papain = target: T3, Papain (Carica papaya, UniProt P00784); assay: Papain inhibition in vitro (substrate A: 3H casein); assay type: biochemical; conditions: papaya latex
T3 construct: from tissue; host or cells: Papaya latex
T3 sequence (P00784 134-345): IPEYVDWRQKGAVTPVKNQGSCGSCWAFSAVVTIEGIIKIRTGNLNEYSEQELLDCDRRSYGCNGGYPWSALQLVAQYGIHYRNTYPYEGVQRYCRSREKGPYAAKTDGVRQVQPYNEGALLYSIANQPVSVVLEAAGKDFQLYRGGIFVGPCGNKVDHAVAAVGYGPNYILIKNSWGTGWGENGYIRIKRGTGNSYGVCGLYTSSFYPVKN
Procedure: as §1, with “An inhibitory activity of BE-16627A and B to various proteases including stromelysin and collagenase was determined by an in-vitro test. As” for “As”
as §2

Pepsin = Pepsin (Sus scrofa, UniProt P00791); assay: Pepsin inhibition in vitro (substrate A: 3H casein); assay type: biochemical; conditions: porcine
Procedure: as §1, with “An inhibitory activity of BE-16627A and B to various proteases including stromelysin and collagenase was determined by an in-vitro test. As” for “As”
as §2

[1] = test system: mouse cultured cancer cells (P388); assay: cells; assay type: cell-based
Solubility = assay type: physicochemical
metal enzymes = assay: Inhibitory activity to various proteases (metal enzymes versus others); assay type: biochemical; conditions: in words, from Table 1
Procedure: as §1, with “An inhibitory activity of BE-16627A and B to various proteases including stromelysin and collagenase was determined by an in-vitro test. As” for “As”

[2] = in an organic solvent such as chloroform, ethyl acetate, benzene, hexane and the like

T1 sequence (P08254 100-477): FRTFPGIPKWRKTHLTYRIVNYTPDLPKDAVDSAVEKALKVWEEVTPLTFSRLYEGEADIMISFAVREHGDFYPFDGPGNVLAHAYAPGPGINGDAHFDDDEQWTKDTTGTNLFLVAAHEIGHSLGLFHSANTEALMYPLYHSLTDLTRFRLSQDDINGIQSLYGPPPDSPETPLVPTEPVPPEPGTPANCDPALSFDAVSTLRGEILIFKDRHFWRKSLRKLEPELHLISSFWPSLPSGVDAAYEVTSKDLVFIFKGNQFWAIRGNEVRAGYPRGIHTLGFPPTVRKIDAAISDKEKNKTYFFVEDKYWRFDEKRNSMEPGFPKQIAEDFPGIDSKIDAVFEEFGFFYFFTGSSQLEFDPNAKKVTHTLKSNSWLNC
Thermolysin, sequence (P00800 233-548): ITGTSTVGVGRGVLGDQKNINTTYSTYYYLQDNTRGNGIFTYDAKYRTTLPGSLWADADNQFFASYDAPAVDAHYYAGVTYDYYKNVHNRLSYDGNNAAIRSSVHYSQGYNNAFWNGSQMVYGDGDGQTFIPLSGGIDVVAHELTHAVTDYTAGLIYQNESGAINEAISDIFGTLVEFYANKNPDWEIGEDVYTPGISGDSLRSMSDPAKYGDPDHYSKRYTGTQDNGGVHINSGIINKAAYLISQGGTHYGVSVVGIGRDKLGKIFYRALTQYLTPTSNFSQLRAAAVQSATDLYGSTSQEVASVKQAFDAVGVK
Elastase, sequence (P00772 27-266): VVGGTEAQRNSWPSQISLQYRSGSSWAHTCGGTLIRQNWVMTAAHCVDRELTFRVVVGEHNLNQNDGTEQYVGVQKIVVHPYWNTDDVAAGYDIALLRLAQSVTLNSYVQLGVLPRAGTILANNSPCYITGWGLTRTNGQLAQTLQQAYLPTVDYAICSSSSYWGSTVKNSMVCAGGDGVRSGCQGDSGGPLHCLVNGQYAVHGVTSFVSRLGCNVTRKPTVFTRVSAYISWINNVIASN
Pepsin, sequence (P00791 60-385): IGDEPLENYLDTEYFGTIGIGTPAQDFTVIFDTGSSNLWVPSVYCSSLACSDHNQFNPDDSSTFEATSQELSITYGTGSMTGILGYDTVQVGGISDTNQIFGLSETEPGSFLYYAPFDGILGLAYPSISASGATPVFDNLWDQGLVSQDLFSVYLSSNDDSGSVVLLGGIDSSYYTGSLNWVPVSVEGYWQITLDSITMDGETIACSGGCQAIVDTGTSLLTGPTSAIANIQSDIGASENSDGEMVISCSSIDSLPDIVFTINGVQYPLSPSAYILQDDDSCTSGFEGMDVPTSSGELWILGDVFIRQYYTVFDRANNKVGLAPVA

Structure (SMILES) | inhibition of stromelysin (human) relative to other enzymes (Stromelysin) | IC50 (Stromelysin) | IC50 (Collagenase) | IC50 (Thermolysin) | IC50 (Trypsin) | IC50 (Chymotrypsin) | IC50 (Elastase) | IC50 (Papain) | IC50 (Pepsin) | cytotoxicity [1] | IC50 ([1]; Mus musculus, P388, read-out: IC50 value (cytotoxic test)) | Solubility (Solubility; in an alkaline water) | Solubility (Solubility; [2]) | inhibition of the activity of metal enzymes (metal enzymes)
CCCC(CC(=O)NO)C(=O)NC(CO)C(=O)NC(C(=O)O)C(C)C (stereo not drawn) [BE-16627A] | most strongly inhibited | 5 µM | 11.6 µM | 19.3 µM | > 276 µM | > 276 µM | > 276 µM | 138 µM | > 276 µM | low cytotoxicity | ≥ 100 µg/mL | readily soluble | almost insoluble | specifically inhibited
CC(C)CC(CC(=O)NO)C(=O)NC(CO)C(=O)NC(C(=O)O)C(C)C (stereo not drawn) [BE-16627B] | most strongly inhibited | 0.58 µM | 2.7 µM | 2.4 µM | > 266 µM | > 266 µM | > 266 µM | > 266 µM | > 266 µM | low cytotoxicity |  | readily soluble | almost insoluble | specifically inhibited

— patent US5391486A, “Physiologically active substance BE-16627” (Banyu Pharmaceutical Co., Ltd., priority 1989, dated 1995)
